Reference: PubChem BioAssay (NCI)
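These data come from cells grown in 96-well plates and exposed to compound for 48 hours at five concentrations. The concentration for full growth arrest is given as TGI.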

Experiments:
Test in all cases: DTP human tumour cell line panel, 48 h
[1] = test system: 786-0 renal
[2] = test system: A498 renal
[3] = test system: A549 NSCLC
[4] = test system: ACHN renal
[5] = test system: BT-549 breast
[6] = test system: CAKI-1 renal
[7] = test system: CCRF-CEM leukemia
[8] = test system: COLO 205 colon
[9] = test system: DU-145 prostate
[10] = test system: EKVX NSCLC
[11] = test system: HCC-2998 colon
[12] = test system: HCT-116 colon
[13] = test system: HCT-15 colon
[14] = test system: HL-60(TB) leukemia
[15] = test system: HOP-62 NSCLC
[16] = test system: HOP-92 NSCLC
[17] = test system: HS 578T breast
[18] = test system: HT29 colon
[19] = test system: IGROV1 ovarian
[20] = test system: K-562 leukemia
[21] = test system: KM12 colon
[22] = test system: LOX IMVI melanoma
[23] = test system: M14 melanoma
[24] = test system: MALME-3M melanoma
[25] = test system: MCF7 breast
[26] = test system: MDA-MB-231 breast
[27] = test system: MDA-MB-435
[28] = test system: MDA-N
[29] = test system: MOLT-4 leukemia
[30] = test system: NCI-H226 lung
[31] = test system: NCI-H23 lung
[32] = test system: NCI-H460 lung
[33] = test system: NCI-H522 lung
[34] = test system: NCI/ADR-RES ovarian
[35] = test system: OVCAR-3 ovarian
[36] = test system: OVCAR-4 ovarian
[37] = test system: OVCAR-5 ovarian
[38] = test system: OVCAR-8 ovarian
[39] = test system: PC-3 prostate
[40] = test system: RPMI-8226 leukemia
[41] = test system: RXF 393 renal
[42] = test system: SF-268 CNS
[43] = test system: SF-295 CNS
[44] = test system: SF-539 CNS
[45] = test system: SK-MEL-2 melanoma
[46] = test system: SK-MEL-28 melanoma
[47] = test system: SK-MEL-5 melanoma
[48] = test system: SN12C renal
[49] = test system: SNB-19 CNS
[50] = test system: SNB-75 CNS
[51] = test system: SR leukemia
[52] = test system: SW-620 colon
[53] = test system: T-47D breast
[54] = test system: U251 CNS
[55] = test system: UACC-257 melanoma
[56] = test system: UACC-62 melanoma
[57] = test system: UO-31 renal
[58] = test system: SK-OV-3 ovarian
[59] = test system: TK-10 renal

Q: What does the source list for `O=c1cc(-c2ccccc2)c2ccc(O)c(CN(CCCl)CCCl)c2o1`?
A: TGI [1]: 39.3 µM; TGI [2]: 41.6 µM; TGI [3]: 57.3 µM; TGI [4]: 64 µM; TGI [5]: 25 µM; TGI [6]: 29.1 µM; TGI [7]: 20.7 µM; TGI [8]: 25.9 µM; TGI [9]: > 100 µM; TGI [10]: 59.1 µM; TGI [11]: 25 µM; TGI [12]: 43.1 µM; TGI [13]: 45.2 µM; TGI [14]: 40.4 µM; TGI [15]: 33.2 µM; TGI [16]: 56.8 µM; TGI [17]: 69.5 µM; TGI [18]: 26 µM; TGI [19]: 33.8 µM; TGI [20]: 91.5 µM; TGI [21]: 35.8 µM; TGI [22]: 22.1 µM; TGI [23]: 42 µM; TGI [24]: 41.3 µM; TGI [25]: > 100 µM; TGI [26]: 33.2 µM; TGI [27]: 39.9 µM; TGI [28]: 35.1 µM; TGI [29]: 47.8 µM; TGI [30]: 32.5 µM; TGI [31]: 41.7 µM; TGI [32]: > 100 µM; TGI [33]: 35.7 µM; TGI [34]: > 100 µM; TGI [35]: 40.4 µM; TGI [36]: > 100 µM; TGI [37]: 34.1 µM; TGI [38]: 48.2 µM; TGI [39]: 36.8 µM; TGI [40]: 47.8 µM; TGI [41]: 30.1 µM; TGI [42]: 44.5 µM; TGI [43]: 29.7 µM; TGI [44]: 44.4 µM; TGI [45]: 59.8 µM; TGI [46]: 36.7 µM; TGI [47]: 31 µM; TGI [48]: 38.5 µM; TGI [49]: 47 µM; TGI [50]: 38.9 µM; TGI [51]: 33.1 µM; TGI [52]: 69.7 µM; TGI [53]: 55.6 µM; TGI [54]: 56.9 µM; TGI [55]: 33.9 µM; TGI [56]: 51.6 µM; TGI [57]: 36.9 µM

Q: Which results are given for `CN(C)C1C(=O)C(C(=O)NCN2CCCC2)=C(O)C2(O)C(=O)C3=C(O)c4c(O)cccc4C(C)(O)C3CC12` (stereo not drawn)?
A: TGI [1]: > 100 µM; TGI [2]: > 100 µM; TGI [3]: > 100 µM; TGI [4]: > 100 µM; TGI [5]: > 100 µM; TGI [6]: > 100 µM; TGI [7]: > 100 µM; TGI [8]: > 100 µM; TGI [9]: > 100 µM; TGI [10]: > 100 µM; TGI [12]: > 100 µM; TGI [13]: > 100 µM; TGI [14]: > 100 µM; TGI [15]: > 100 µM; TGI [16]: > 100 µM; TGI [17]: > 100 µM; TGI [18]: > 100 µM; TGI [19]: > 100 µM; TGI [20]: > 100 µM; TGI [21]: > 100 µM; TGI [22]: > 100 µM; TGI [23]: > 100 µM; TGI [24]: 48.7 µM; TGI [25]: > 100 µM; TGI [26]: > 100 µM; TGI [27]: > 100 µM; TGI [28]: > 100 µM; TGI [29]: > 100 µM; TGI [30]: > 100 µM; TGI [31]: > 100 µM; TGI [33]: > 100 µM; TGI [34]: > 100 µM; TGI [35]: > 100 µM; TGI [36]: > 100 µM; TGI [37]: > 100 µM; TGI [38]: > 100 µM; TGI [39]: > 100 µM; TGI [40]: > 100 µM; TGI [41]: > 100 µM; TGI [42]: > 100 µM; TGI [43]: > 100 µM; TGI [45]: > 100 µM; TGI [46]: > 100 µM; TGI [47]: > 100 µM; TGI [58]: > 100 µM; TGI [48]: > 100 µM; TGI [49]: > 100 µM; TGI [50]: > 100 µM; TGI [51]: > 100 µM; TGI [52]: > 100 µM; TGI [53]: > 100 µM; TGI [59]: > 100 µM; TGI [54]: > 100 µM; TGI [55]: > 100 µM; TGI [56]: > 100 µM; TGI [57]: > 100 µM
